{"source": "patent US6843784B2", "about": "“Triclosan and silver compound containing medical devices” (priority 1999, dated 2005)", "test_system": "S. aureus", "type": "cell-based", "note": "“And” between values parts separate entries of the source, which are not always exact repeats. Equal entries are not always repeated. Where two headings read alike, the source gives them in different places.", "method": "Drug solutions containing 10% ammonia were prepared in ethanol, and 0.1 ml of each solution was added to 0.9 ml of bacterial culture (50% trypticase soy broth +50% Bovine Calf Serum containing 10^8 cfu S. aureus/ml). After 10 minutes, a 0.1 ml aliquot was removed and added to 0.9 ml drug inactivating media (LTSB). […] The colony counts were then determined."}
{"smiles": "Oc1cc(Cl)ccc1Oc1ccc(Cl)cc1Cl", "note": "[Triclosan, 2,4,4′-trichloro-2′-hydroxydiphenyl ether]", "values": [{"measurement": "Growth in Culture", "value": "2 × 10^7 cfu/ml and 1.2 × 10^7 cfu/ml"}, {"measurement": "reduction in growth in culture", "setting": "0.5 percent triclosan alone (Table 4 experiment)", "value": 0, "unit": "log"}, {"measurement": "Growth in Culture", "setting": "Solution: Triclosan 0.25%, Silver Sulfadiazine 0%, after 10 minutes, control 2.1 × 10^7", "value": "1.2 × 10^7 cfu/ml"}, {"measurement": "Growth in Culture", "setting": "Solution: Triclosan 0.5%, Silver Sulfadiazine 0%, after 10 minutes, control 2.1 × 10^7", "value": "1 × 10^7 cfu/ml"}, {"measurement": "reduction in growth in culture compared to the control", "setting": "triclosan alone at 0.25 percent (Table 3 experiment)", "value": "less than a power of 10"}, {"measurement": "reduction in growth in culture compared to the control", "setting": "triclosan alone at 0.5 percent (Table 3 experiment)", "value": "less than a power of 10"}]}
